This is an account of results in ChEMBL document CHEMBL1649551, “Antifungal activity of tamoxifen: in vitro and in vivo activities and mechanistic characterization” (2009).

The structures appear in SMILES notation. Values after ≈ are worked out from the molar mass of the structure shown. Active and inactive are the calls of the source. No cut-off for these calls is given here.

Assay [1] deals with Candida albicans. Put plainly: Antifungal activity against Candida albicans SC5314 infected in BALB/c mouse assessed as fungal count per gram of kidney at 200 mg/kg, po administered for 7 days prior to fungal infection. It is filed as functional.
Assay [2] concerns Candida albicans. Put plainly: Antifungal activity against Candida albicans ATCC 90028 after 24 hrs by CLSI method. The following applies: ATCC 90028, 24 h. It is filed as functional.
Assay [3] deals with Saccharomyces cerevisiae. Put plainly: Antifungal activity against Saccharomyces cerevisiae BY4741 at 8 ug/ml by alexa fluor-phalloidin staining. It is filed as functional, organism-based.
Assay [4] concerns Cryptococcus neoformans. Put plainly: Antifungal activity against Cryptococcus neoformans NYS3-81 after 24 hrs by CLSI method. The conditions noted are these: NYS3-81, 24 h. It is filed as functional.
Assay [5] relates to Saccharomyces cerevisiae. Put plainly: Antifungal activity against Saccharomyces cerevisiae BY4741 assessed as appearance of unbudded cells with more than one nucleus at 8 ug/ml. The class given is functional.
In assay [6] the target is Calmodulin (Saccharomyces cerevisiae S288c) (UniProt P06787). Put plainly: Inhibition of Myo2-GFP binding to Saccharomyces cerevisiae BY4741 calmodulin at 50 ug/ml by Western blot analysis. A general note: Immunoblotting shows a protein as a band on a membrane.
Sequence of Calmodulin (Saccharomyces cerevisiae S288c) (P06787 whole entry): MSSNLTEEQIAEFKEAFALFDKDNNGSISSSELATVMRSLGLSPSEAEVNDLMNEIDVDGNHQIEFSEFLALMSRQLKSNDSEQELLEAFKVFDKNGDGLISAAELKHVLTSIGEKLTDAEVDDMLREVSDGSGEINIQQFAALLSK
The subject of assay [7] is Candida albicans. Put plainly: Antifungal activity against Candida albicans SC5314 at 16 ug/ml after 2 hrs by alexa fluor-phalloidin staining. It is filed as functional, organism-based.
The test system of assay [8] is Candida albicans. Put plainly: Antifungal activity against Candida albicans SC5314 after 24 hrs by CLSI method. It is filed as functional. The following applies: SC5314, 24 h.
In assay [9] the test system is Candida parapsilosis. Put plainly: Antifungal activity against Candida parapsilosis R058-G12 after 24 hrs by CLSI method. The following applies: Lodderomyces parapsilosis, R058-G12, 24 h. It is filed as functional.
In assay [10] the test system is Candida tropicalis. Put plainly: Antifungal activity against Candida tropicalis MR064-H after 24 hrs by CLSI method. It is filed as functional.
Assay [11] relates to Cryptococcus neoformans. Put plainly: Antifungal activity against Cryptococcus neoformans KN99alpha after 24 hrs by CLSI method. The class given is functional.
For assay [12], the system named is Candida dubliniensis. Put plainly: Antifungal activity against Candida dubliniensis CD1 after 24 hrs by CLSI method. It is filed as functional. The following applies: CD1, 24 h.
The subject of assay [13] is Saccharomyces cerevisiae. Put plainly: Antifungal activity against Saccharomyces cerevisiae BY4741 after 24 hrs by CLSI method. It is filed as functional. The conditions noted are these: BY4741, 24 h.
Assay [14] has as its system Saccharomyces cerevisiae. Put plainly: Antifungal activity against Saccharomyces cerevisiae BY4741 expressing PKC1 at 62 to 125 ug/mL after 3 days by photographic analysis. The class given is functional, organism-based.
The subject of assay [15] is Saccharomyces cerevisiae. Put plainly: Antifungal activity against Saccharomyces cerevisiae BY4741 expressing CMD1 at 62 to 125 ug/mL after 3 days by photographic analysis. The class given is functional, organism-based.
The subject of assay [16] is Saccharomyces cerevisiae. Put plainly: Antifungal activity against Saccharomyces cerevisiae BY4741 assessed as inhibition fungal bud formation at 8 ug/ml. It is filed as functional, organism-based.
Assay [17] relates to Nakaseomyces glabratus. Put plainly: Antifungal activity against Candida glabrata MR084-G12 after 24 hrs by CLSI method. It is filed as functional. The conditions noted are these: MR084-G12, 24 h.

By MIC is commonly meant the least concentration at which growth counts as inhibited. The low end stands for greater potency, the high end for weaker potency. Consider `CC/C(=C(\c1ccccc1)c1ccc(OCCN(C)C)cc1)c1ccccc1` [TAMOXIFEN], for which the log10cfu in assay [1] was determined as 1.5. In addition, the MIC came out at 32 µg/mL (≈ 86.1 µM) in [2]; 64 µg/mL (≈ 172 µM) in assay [4]; 32 µg/mL (≈ 86.1 µM) in [8]; 64 µg/mL (≈ 172 µM) in assay [9]; 32 µg/mL (≈ 86.1 µM) in assay [10]; 64 µg/mL (≈ 172 µM) in assay [11]. Further, the figures for the MIC in assay [12], in assay [13] and in [17] were 16 µg/mL (≈ 43.1 µM), 12 µg/mL (≈ 32.3 µM) and 8 µg/mL (≈ 21.5 µM), respectively. The result in [3], in assay [7], in assay [14], in assay [15] and in assay [16] was Active. Also, the Activity in [5] is on record as 15%. Moreover, the inhibition result in assay [6] is “Active”.
Take `CCN(CC)CCOc1ccc(C(=C(Cl)c2ccccc2)c2ccccc2)cc1` [CLOMIPHENE]: the minimum inhibitory concentration (MIC) in [2] is above 64 µg/mL; in assay [4], 64 µg/mL (≈ 158 µM); in assay [8] it was 32 µg/mL (≈ 78.8 µM); in [9], 64 µg/mL (≈ 158 µM); in [10], 64 µg/mL (≈ 158 µM); in assay [11], 64 µg/mL (≈ 158 µM). Besides, the minimum inhibitory concentration (MIC) in assay [12] was 32 µg/mL (≈ 78.8 µM); in assay [13], 18 µg/mL (≈ 44.3 µM); in assay [17], 32 µg/mL (≈ 78.8 µM).
With `CN1CCN(CCCN2c3ccccc3Sc3ccc(Cl)cc32)CC1`, the inhibition entry in assay [6] is “Active”.
